Source: US7446177B2, “Uses of DC-SIGN and DC-SIGNR for inhibiting hepatitis C virus infection” (Progenics Pharmaceuticals, Inc., priority 2001, dated 2008)
Entries after “also recorded” stand apart in the source; their conditions may differ.

Key:
[1] = target: T1, HCV-E2 binding to DC-SIGN (Homo sapiens, UniProt Q9NNX6); settings: HeLa-DC-SIGN cells, 20 beads/cell; mannan 20 ug/ml, antibodies 0.1-10 ug/ml, EDTA or EGTA 5 mM
T1 construct: E2 from Accurate Chemicals, NY Item # 5444; E2 produced in CHO cells
T1 sequence (Q9NNX6 whole entry): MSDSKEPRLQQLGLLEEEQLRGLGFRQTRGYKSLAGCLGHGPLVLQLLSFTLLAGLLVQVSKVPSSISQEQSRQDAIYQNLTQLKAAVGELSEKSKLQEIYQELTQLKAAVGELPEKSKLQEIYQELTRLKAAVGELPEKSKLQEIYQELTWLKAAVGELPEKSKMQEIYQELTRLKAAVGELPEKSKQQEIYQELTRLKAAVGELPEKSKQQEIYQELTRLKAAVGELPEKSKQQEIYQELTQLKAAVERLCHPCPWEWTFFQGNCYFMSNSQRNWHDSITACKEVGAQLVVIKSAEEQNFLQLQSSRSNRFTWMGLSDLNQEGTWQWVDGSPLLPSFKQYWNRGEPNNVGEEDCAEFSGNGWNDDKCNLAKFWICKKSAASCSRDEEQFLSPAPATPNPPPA
Protocol: (§1) Carboxylate-modified FluoSpheres® NeutrAvidin™ labeled microspheres (505/515 nm, 1.0 um; Molecular Probes, Eugene, Oreg.) were coated with HCV E2 glycoprotein as described for ICAM-1 beads (Geijtenbeek et al, Blood, 94, 754-764 (1999)). Briefly, NeutrAvidin™-coated beads were sonicated, and washed in PBS/BSA (0.5%). Beads were incubated with biotinylated-Sp-conjugated AffiniPure F(ab′)2 goat anti-mouse IgG F(ab′)2 fragment specific (6 ug/ml in PBS/BSA (0.5%); Jackson Immunoresearch Laboratories, Inc., West Grove, Pa.) for 2 hours at 37° C. After washing, beads were incubated with mouse anti-E2 antibodies (6 ug/ml in PBS/BSA (0.5%)) at 4° C. overnight. The beads were washed and incubated with 250 ng/ml purified HCV E2 produced in CHO cells (Accurate Chemicals, NY) overnight at 4° C.
(§2) This was performed as described by Geijtenbeek et al, (Blood, 94, 754-764 (1999)), with modifications. Cells were removed from culture by cell dissociation solution (Sigma) for 5 minutes at 37° C. and washed three times in adhesion buffer (20 mM Tris-HCl [pH 8.0], 150 mM NaCl, 1 mM CaCl2, 2 mM MgCl2, and 0.5% BSA). Cells were resuspended at a final concentration of 5×10^6 cells/ml in adhesion buffer for 30 minutes at 4° C. to recharge Ca2+ levels. Cells ([…]) were preincubated with mannan (20 ug/ml; Sigma), antibodies (0.1-10 ug/ml), EDTA (5 mM) or EGTA (5 mM) for 10 minutes at room temperature. HCV-E2-coated fluorescent beads (20 beads/cell) were added, and the suspension incubated for 30 minutes at 37° C. Adhesion was determined by measuring the percentage of cells that bound fluorescent beads by flow cytometry using a FACSca (Becton Dickinson, Oxnard, Calif.).
(§3) To determine whether DC-SIGN and DC-SIGN-R bind to HCV-E2 glycoproetin, a flow cytometric adhesion assay (Geijtenbeek et al, Blood, 94, 754-764 (1999)) was adapted. HCV-E2 protein produced in CHO cells was captured on fluorescent beads using a panel of anti-E2 mAbs, which were incubated with DC-SIGN- and DC-SIGN-R-HeLa cells at a ratio of 20 beads per cell.

[2] = target: T2, HCV-E2 binding to DC-SIGN-R (Homo sapiens, UniProt Q9H2X3); settings: HeLa-DC-SIGN-R cells, 20 beads/cell; mannan 20 ug/ml, antibodies 0.1-10 ug/ml, EDTA or EGTA 5 mM
T2 construct: E2 from Accurate Chemicals, NY Item # 6749; E2 produced in CHO cells
T2 sequence (Q9H2X3 whole entry): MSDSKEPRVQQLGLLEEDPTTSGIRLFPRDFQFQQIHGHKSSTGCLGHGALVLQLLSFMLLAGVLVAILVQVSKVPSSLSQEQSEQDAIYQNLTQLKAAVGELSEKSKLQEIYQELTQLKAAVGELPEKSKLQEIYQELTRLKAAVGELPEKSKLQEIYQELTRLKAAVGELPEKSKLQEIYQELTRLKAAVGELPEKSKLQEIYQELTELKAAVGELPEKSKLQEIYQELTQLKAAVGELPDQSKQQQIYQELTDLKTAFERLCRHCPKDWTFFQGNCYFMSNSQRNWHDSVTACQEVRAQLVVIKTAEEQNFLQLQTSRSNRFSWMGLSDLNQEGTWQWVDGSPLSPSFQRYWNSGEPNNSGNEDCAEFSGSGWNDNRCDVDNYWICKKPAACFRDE
Protocol: as §1, §2, §3

Compound | Inhibition of adhesion of HCV-E2-coated beads to DC-SIGN [1] | Inhibition of adhesion of HCV-E2-coated beads to DC-SIGN-R [2]
mannan | inhibit; also recorded: efficiently inhibited; also recorded: blocked | inhibit; also recorded: efficiently inhibited; also recorded: blocked
O=C(O)CN(CCN(CC(=O)O)CC(=O)O)CC(=O)O [EDTA] | efficiently inhibited | efficiently inhibited
O=C(O)CN(CCOCCOCCN(CC(=O)O)CC(=O)O)CC(=O)O [EGTA] | efficiently inhibited | efficiently inhibited
